This note sets out measurements from PMC10916382, “Repurposing screen identifies novel candidates for broad-spectrum coronavirus antivirals and druggable host targets” (Antimicrobial Agents and Chemotherapy, 2024).

Data set [1] can be described thus: in vitro.
Data set [2] is described as follows: in vitro. The conditions noted are these: human.
For a further data set, the system named is HCoV-229E. The data set can be described thus: microbe, parasite or virus in culture. The settings on record: Human coronavirus 229E, Huh7.5, read-out: IC50 (µM), HCoV 229E. It is filed as cell-based, Homo sapiens sapiens.
The mark [3] stands for this setting: Anti-SARS-CoV-2 screening on Calu-3 cells: viability [% of control], Calu-3 cells.
The mark [4] stands for this setting: Calu-3 cells, immunofluorescence imaging.
Where [5] appears, read: Huh-7.5/F-Luc cells, maximum tested dose 5 µM.

Read-outs that look alike come from different tables or passages of the source.

On to `CN(C)C(=O)NC1(c2ccccc2)CCN(CCC[C@]2(c3ccc(Cl)c(Cl)c3)CCCN(C(=O)c3ccccc3)C2)CC1` [RFM-003-485-5], for which, in “in vitro [1]” (setting [3]), the viability was 109%. The viability at 5 µM in the data set “in vitro [2]” was found to be 172%. In addition, in the data set on HCoV-229E, the IC50 came out at 1.64 µM. The “Anti-SARS-CoV-2 screening on Calu-3 cells: intracellular SARS-CoV-2 infection measured via immunofluorescence imaging [% of control]” value (“Anti-SARS-CoV-2 screening … [% of control]” below) with SARS-CoV-2 (setting [4]) is reported as 114.56 % of control. Further, the “CC50 (µM)” value in the data set with Huh-7.5/F-Luc cells (setting [5]) was “greater than maximum tested dose”.

Take `CC(C(O)c1ccccc1)N(C)CC=C1c2ccccc2CCc2ccccc21` (stereo not drawn) [RFM-010-015-2]: the viability in the data set “in vitro [1]” (setting [3]) came to 107%. In “in vitro [2]”, the viability at 5 µM was 122%. Moreover, the IC50 in the data set on HCoV-229E worked out at 1.96 µM. In addition, the “Anti-SARS-CoV-2 screening … [% of control]” value in the data set with SARS-CoV-2 (setting [4]) is 107.49 % of control. In addition, the “CC50 (µM)” value in the data set on Huh-7.5/F-Luc cells (setting [5]) is recorded as “greater than maximum tested dose”.

With `COC(=O)C1=C(C)NC(C)=C(C(=O)OCCCN2CCC(c3ccccc3)(c3ccccc3)CC2)[C@@H]1c1cccc([N+](=O)[O-])c1` [RFM-003-515-4], the viability in “in vitro [1]” was determined as 92.9%. The viability at 5 µM in “in vitro [2]” was 136%. Further, in the data set with HCoV-229E, the IC50 was found to be 1.39 µM. In the data set with SARS-CoV-2, the “Anti-SARS-CoV-2 screening … [% of control]” value is 83.07 % of control. Moreover, in the data set on Huh-7.5/F-Luc cells, the “CC50 (µM)” value is “greater than maximum tested dose”.

For the compound `CCCCC1=Cc2cc3c(cc2C1N1CCN(C)CC1)OCO3` (stereo not drawn) [RFM-005-200-6], the viability in the data set “in vitro [1]” (setting [3]) was 102%. Moreover, the viability at 5 µM in “in vitro [2]” came out at 145%. Further, the IC50 in the data set with HCoV-229E stood at 2.5 µM. Further, the “Anti-SARS-CoV-2 screening … [% of control]” value with SARS-CoV-2 (setting [4]) is reported as 112.43 % of control. Moreover, in the data set with Huh-7.5/F-Luc cells (setting [5]), the “CC50 (µM)” value is “greater than maximum tested dose”.

Regarding `CC(=O)N(C)C1(c2ccccc2)CCN(CCC[C@]2(c3ccc(Cl)c(Cl)c3)CCCN(C(=O)c3ccccc3)C2)CC1` [RFM-000-080-6], the viability in the data set “in vitro [1]” (setting [3]) is 113%. Also, the viability at 5 µM in the data set “in vitro [2]” was 131%. In the data set with HCoV-229E, the IC50 was 1.5 µM. In addition, the “Anti-SARS-CoV-2 screening … [% of control]” value in the data set on SARS-CoV-2 (setting [4]) is 106.27 % of control. Moreover, in the data set with Huh-7.5/F-Luc cells (setting [5]), the “CC50 (µM)” value is “greater than maximum tested dose”.

On to `C[C@@H]1CCCN1CCc1cc2cc(-c3ccc(C#N)cc3)ccc2o1` [RFM-000-099-7], for which, in the data set “in vitro [1]” (setting [3]), the viability is 98.3%. The viability at 5 µM in the data set “in vitro [2]” worked out at 152%. Besides, the IC50 with HCoV-229E was determined as 1.39 µM. Besides, the “Anti-SARS-CoV-2 screening … [% of control]” value in the data set with SARS-CoV-2 (setting [4]) was 114.07 % of control. For the same compound, the “CC50 (µM)” value with Huh-7.5/F-Luc cells (setting [5]) is recorded as “greater than maximum tested dose”.

Regarding `CC(Cc1ccccc1)NCCC(c1ccccc1)c1ccccc1` (stereo not drawn) [RFM-000-835-5], in the data set “in vitro [1]”, the viability at 48 h, 5 µM was 102%. Also, the viability at 5 µM in the data set “in vitro [2]” was 140%. Also, the IC50 with HCoV-229E was 1.53 µM. In addition, the “Anti-SARS-CoV-2 screening … [% of control]” value in the data set on SARS-CoV-2 (setting [4]) was 102.68 % of control. In addition, the “CC50 (µM)” value with Huh-7.5/F-Luc cells (setting [5]) was “greater than maximum tested dose”.

Turning to `Cc1cc(OCCN(C)C)c(C(C)C)cc1OC(=O)CC(C)(C)SN=O` [RFM-011-454-5], the viability in the data set “in vitro [1]” (setting [3]) amounted to 88.9%. In the data set “in vitro [2]”, the viability at 5 µM stood at 118%. The IC50 with HCoV-229E was 2.37 µM. Besides, in the data set on SARS-CoV-2 (setting [4]), the “Anti-SARS-CoV-2 screening … [% of control]” value is reported as 101.17 % of control. Further, in the data set on Huh-7.5/F-Luc cells (setting [5]), the “CC50 (µM)” value is listed as “greater than maximum tested dose”.

Consider `CCCN(CCC)C(=O)C(Cc1ccc(OCCCN2CCN(C)CC2)cc1)NC(=O)c1ccc(Cl)cc1` (stereo not drawn) [RFM-009-534-1], for which, in the data set “in vitro [1]” (setting [3]), the viability came out at 103%. Besides, the viability at 5 µM in the data set “in vitro [2]” is 135%. In the data set with HCoV-229E, the IC50 worked out at 3.36 µM. For the same compound, the “Anti-SARS-CoV-2 screening … [% of control]” value in the data set with SARS-CoV-2 (setting [4]) is 104.27 % of control. Further, in the data set on Huh-7.5/F-Luc cells (setting [5]), the “CC50 (µM)” value is on record as “greater than maximum tested dose”.

With `OCCN1CCN(CCCC2c3ccc(F)cc3Sc3ccc(C(F)(F)F)cc32)CC1` (stereo not drawn) [RFM-010-066-3], the viability in “in vitro [1]” (setting [3]) came to 86.5%. The viability at 5 µM in “in vitro [2]” was determined as 148%. Moreover, the IC50 with HCoV-229E amounted to 2.98 µM. For the same compound, the “Anti-SARS-CoV-2 screening … [% of control]” value with SARS-CoV-2 (setting [4]) is given as 109.58 % of control. In addition, in the data set on Huh-7.5/F-Luc cells (setting [5]), the “CC50 (µM)” value was “greater than maximum tested dose”.

For `O=c1[nH]c2cc(Cl)ccc2n1C1CCN(CCCC(c2ccc(F)cc2)c2ccc(F)cc2)CC1` [RFM-008-181-2], the viability in “in vitro [1]” (setting [3]) worked out at 107%. Further, in the data set “in vitro [2]”, the viability at 5 µM came out at 121%. For the same compound, in the data set with HCoV-229E, the IC50 was 1.84 µM. In addition, in the data set with SARS-CoV-2 (setting [4]), the “Anti-SARS-CoV-2 screening … [% of control]” value was 97.91 % of control. Also, the “CC50 (µM)” value in the data set on Huh-7.5/F-Luc cells (setting [5]) is recorded as “greater than maximum tested dose”.

For the compound `CCOC(=O)/C=C/[C@H](C[C@@H]1CCNC1=O)NC(=O)[C@@H](CC(=O)[C@@H](NC(=O)c1cc(C)on1)C(C)C)Cc1ccc(F)cc1` [RFM-010-414-3], the viability in the data set “in vitro [1]” (setting [3]) worked out at 100%. For the same compound, in the data set “in vitro [2]”, the viability at 5 µM came out at 94.6%. Also, the IC50 in the data set with HCoV-229E is 4.19 µM. For the same compound, in the data set with SARS-CoV-2 (setting [4]), the “Anti-SARS-CoV-2 screening … [% of control]” value is recorded as 93.65 % of control. The “CC50 (µM)” value with Huh-7.5/F-Luc cells (setting [5]) is listed as “greater than maximum tested dose”.
